Patent US12077495B2 (priority 2018, dated 2024)
Like-named read-outs stand apart in the source and are kept apart here.

What was measured:
GABAB receptor = target: T1, GABAB receptor (Rattus norvegicus, UniProt Q9Z0U4); assay: 3H-GABA binding assay for GABAB, rat cortex membranes
T1 construct: using crude synaptic membranes prepared from rat cortex; from tissue; host or cells: rat cortex, crude synaptic membranes
Procedure: Following incubation by rapid filtration through GF/C unifilters (PerkinElmer, Boston, MA, USA), using a 96-well Packard cell-harvester (PerkinElmer) and three fast washes with ice-cold binding buffer, microscint scintillation fluid (PerkinElmer) was added to the dried filters, and the amount of filter-bound radioactivity was quantified in a Packard TopCount microplate scintillation counter (PerkinElmer). […] The binding reactions were terminated by rapid filtration through GF/C filters (Whatman), soaked in 0.1% polyethylene imine, using a Brandell 48-well harvester and rapid washing with ice-cold binding buffer. […] Data are presented as % specific binding (of control), and IC50 or Ki values calculated by means of non-linear regression curve-fitting and the Cheng-Prusoff equation, respectively.

[1] = target: T2, specific GHB sites (high-affinity GHB binding site) (Rattus norvegicus, UniProt P11275); assay: biochemical; conditions: pH 6
T2 construct: using crude synaptic membranes prepared from rat cortex; from tissue; host or cells: rat cortex, crude synaptic membranes
T2 sequence (P11275 whole entry): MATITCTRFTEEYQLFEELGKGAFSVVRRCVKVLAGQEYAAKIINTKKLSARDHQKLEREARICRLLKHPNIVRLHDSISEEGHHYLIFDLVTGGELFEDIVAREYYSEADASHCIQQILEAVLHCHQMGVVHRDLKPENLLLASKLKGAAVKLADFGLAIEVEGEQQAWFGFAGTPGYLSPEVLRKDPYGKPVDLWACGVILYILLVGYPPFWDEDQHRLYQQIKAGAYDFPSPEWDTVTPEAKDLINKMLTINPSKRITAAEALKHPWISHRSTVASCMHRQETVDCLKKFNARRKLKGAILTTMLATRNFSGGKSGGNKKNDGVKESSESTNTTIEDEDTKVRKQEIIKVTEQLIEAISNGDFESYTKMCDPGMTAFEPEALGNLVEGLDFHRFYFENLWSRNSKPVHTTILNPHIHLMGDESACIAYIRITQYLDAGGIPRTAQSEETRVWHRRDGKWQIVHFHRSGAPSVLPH

[2] = target: T2, specific GHB sites (high-affinity GHB binding site); assay: biochemical
[3] = tested on: photothrombotic focal ischemia in C57BL/6J mice; assay: Photothrombotic model, behavioural assessment (grid-walking and cylinder tasks); assay type: in vivo; conditions: day 7
Procedure: (§1) All procedures were performed in accordance with the guidelines on the care and use of laboratory animals set out by the University of Otago, Animal Research Committee and the Guide for Care and Use of Laboratory Animals (NIH Publication No. 85-23, 1996). All in vivo studies were approved by the University of Otago Animal Ethics Committee and are reported according to the ARRIVE (Animal Research: Reporting In Vivo Experiments) guidelines. The photochemical cortical lesion model resembles situations of acute brain injury related clinically to stroke and traumatic brain injury (TBI). Focal ischemia was induced by photothrombosis in male C57BL/6J mice (8-10 weeks) weighing ˜23-30 g as previously described (Clarkson et al., 2010). Under anesthesia with isoflurane (2% to 2.5% in O2) mice were placed in a stereotactic apparatus, the skull exposed through a midline incision, cleared of connective tissue and dried. A cold light source (KL1500 LCD, Zeiss, Auckland, New Zealand) attached to a 40× objective providing a 2-mm diameter illumination was positioned 1.5 mm lateral from bregma. Then, 0.2 ml of Rose Bengal (Sigma-Aldrich, Auckland, New Zealand; 10 mg/ml in normal saline) was administered i.p. After 5 min, the brain was illuminated through the exposed intact skull for 15 min, while keeping body temperature at 37.0±0.3° C. degrees using a heating pad (Harvard apparatus, Holliston, MA, USA). The skin was glued and animals left in a cage placed on a heating pad during the wake-up phase. Mice were housed under a 12-hr light/dark cycle with ad libitum access to food and water. Further, the mice were monitored and weighed on a daily basis.
(§2) For in vivo studies, all compounds were dissolved in a mixture of sterile saline and H2O to obtain isotonicity (0.9%) and administered as 10 mg/ml and 10 μl of solution per gram mouse body weight. The injection of compound (i.p.) was performed 30 min, 3, 6 or 12 hrs after induction of the photothrombotic stroke. The vehicle groups received a corresponding volume of saline (0.9%) at the same time points (30 min, 3, 6 or 12 hrs).
Forelimb motor performance was determined using the cylinder and grid-walking tasks as previously described (Clarkson et al., 2010). All animals were tested both in a pre- and post-testing session, 1 week before and 3 days or 7 days after the ischemic insult, respectively. Observers who scored the behaviour were blinded to the treatment groups.

[4] = tested on: photothrombotic focal ischemia in C57BL/6J mice; assay: Photothrombotic mouse model of focal ischemia, infarct volume; assay type: in vivo; conditions: day 7; for infarct size: saline 5.55
Procedure: as §1, §2
For quantification of the infarcted area, animals were perfused with saline and then with 4% paraformaldehyde (PFA) and the brain dissected out and submerged in 4% PFA for post-fixing overnight. Then the brains were moved to 30% sucrose solution and kept at 4° C. until processing. Brains were cut in 30 μm sections, free-floating in anti-freeze media. Sections were mounted, stained for cresyl violet and the infarct volumes determined by measuring every 6th section through the entire infarct as described in Lie et al (2017). All analyses were performed by an observer blinded to the treatment groups. Brains from the pMCAO studies were flash-frozen in CO2 (gas) and processed into six parallel series of sections (30 μm). Separate series were collected on glass slides and used for infarct size analysis or in Eppendorf tubes and used for qPCR. The glass slides were stored at −80° C. until further processing, and then Cresyl-Violet stained and quantified as described for the photothrombotic photochemical method.

[5] = FIG. 1D, read-out: Ki, competition in the 3H-A binding assay
[6] = read-out: Ki, inhibition of 3H-B binding
[7] = 50 mg/kg i.p. 3 hrs after injury

T1 sequence (Q9Z0U4 17-960 limits assumed): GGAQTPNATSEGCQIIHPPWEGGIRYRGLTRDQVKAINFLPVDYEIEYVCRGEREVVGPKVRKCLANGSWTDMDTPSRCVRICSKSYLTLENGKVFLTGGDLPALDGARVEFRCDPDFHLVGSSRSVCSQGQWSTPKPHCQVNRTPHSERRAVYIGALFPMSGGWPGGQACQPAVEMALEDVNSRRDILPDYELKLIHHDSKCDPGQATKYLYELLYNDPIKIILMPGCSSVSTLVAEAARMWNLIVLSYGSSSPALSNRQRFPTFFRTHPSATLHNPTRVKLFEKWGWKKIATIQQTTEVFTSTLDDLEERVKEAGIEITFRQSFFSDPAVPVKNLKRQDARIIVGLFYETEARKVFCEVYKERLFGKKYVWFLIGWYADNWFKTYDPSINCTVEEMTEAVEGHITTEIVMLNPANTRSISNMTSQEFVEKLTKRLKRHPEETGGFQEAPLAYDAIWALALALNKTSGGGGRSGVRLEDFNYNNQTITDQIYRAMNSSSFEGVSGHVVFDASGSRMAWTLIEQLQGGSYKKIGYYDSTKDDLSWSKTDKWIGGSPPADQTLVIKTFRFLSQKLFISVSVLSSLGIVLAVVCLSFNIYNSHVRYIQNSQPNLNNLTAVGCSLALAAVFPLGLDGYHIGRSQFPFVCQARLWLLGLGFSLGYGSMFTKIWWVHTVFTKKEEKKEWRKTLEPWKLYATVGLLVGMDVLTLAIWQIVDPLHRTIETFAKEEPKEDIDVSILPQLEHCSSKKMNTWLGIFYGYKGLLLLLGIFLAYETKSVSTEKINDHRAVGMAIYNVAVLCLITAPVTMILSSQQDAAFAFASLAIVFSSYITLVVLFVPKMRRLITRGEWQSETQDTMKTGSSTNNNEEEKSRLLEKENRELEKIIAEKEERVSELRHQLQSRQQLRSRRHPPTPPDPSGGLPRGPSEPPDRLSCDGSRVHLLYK
T1 sequence (O88871 41-940 partner): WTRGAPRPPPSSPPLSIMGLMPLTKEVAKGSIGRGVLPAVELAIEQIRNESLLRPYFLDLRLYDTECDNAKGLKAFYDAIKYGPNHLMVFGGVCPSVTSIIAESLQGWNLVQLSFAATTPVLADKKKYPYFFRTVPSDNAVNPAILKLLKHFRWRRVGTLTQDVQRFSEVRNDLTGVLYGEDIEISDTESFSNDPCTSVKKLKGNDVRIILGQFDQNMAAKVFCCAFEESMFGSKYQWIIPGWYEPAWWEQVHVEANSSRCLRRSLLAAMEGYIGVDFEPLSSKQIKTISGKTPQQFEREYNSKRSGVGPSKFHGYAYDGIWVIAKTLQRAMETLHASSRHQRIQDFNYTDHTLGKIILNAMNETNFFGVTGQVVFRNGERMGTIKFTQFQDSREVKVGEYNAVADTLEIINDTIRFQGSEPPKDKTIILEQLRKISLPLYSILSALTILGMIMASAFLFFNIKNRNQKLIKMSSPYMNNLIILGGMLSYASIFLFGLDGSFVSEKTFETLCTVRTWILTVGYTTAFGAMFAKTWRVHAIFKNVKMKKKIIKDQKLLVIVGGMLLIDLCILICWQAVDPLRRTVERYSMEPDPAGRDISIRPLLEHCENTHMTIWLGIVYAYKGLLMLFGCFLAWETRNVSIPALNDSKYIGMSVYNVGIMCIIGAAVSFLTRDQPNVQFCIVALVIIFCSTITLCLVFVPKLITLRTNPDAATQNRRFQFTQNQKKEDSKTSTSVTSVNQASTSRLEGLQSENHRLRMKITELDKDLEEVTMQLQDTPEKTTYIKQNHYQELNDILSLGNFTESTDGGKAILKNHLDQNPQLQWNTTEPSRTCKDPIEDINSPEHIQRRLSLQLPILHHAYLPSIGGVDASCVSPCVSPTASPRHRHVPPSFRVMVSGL

O=C(O)CCCO [GHB, γ-hydroxybutyric acid]
inhibition of 3H-GABA binding to GABAB receptor (GABAB receptor; at both 0.1 mM and 1 mM): could inhibit

O=C(O)/C=C1\CCCc2cc(/C=C/c3ccccc3)ccc2C1O (stereo not shown) [Compound 3, (E)-2-(5-hydroxy-2-((E)-styryl)-5,7,8,9-tetrahydro-6H-benzo[7]annulen-6-ylidene)acetic acid]
Ki [1]: 30 nM
Ki ([2]; pH 7.4, read-out: Ki, 3H-A binding assay): 87 nM
Ki ([2]; read-out: Ki, inhibition of 3H-A binding, pH 6): 50 nM

O=C(O)Cc1ccccc1Nc1c(Cl)cccc1Cl [diclofenac, reference compound]
Ki [2, 5]: 4700 nM

O=C(O)/C=C1\CCCc2cc(F)ccc2C1O (stereo not shown) [Compound 6, (E)-2-(2-fluoro-5-hydroxy-5,7,8,9-tetrahydro-6H-benzo[7]annulen-6-ylidene)acetic acid]
Ki [1]: 108 nM

O=C(O)/C=C1\CCCc2ccc(Br)cc2C1O (stereo not shown) [Compound 10, (E)-2-(3-bromo-5-hydroxy-5,7,8,9-tetrahydro-6H-benzo[7]annulen-6-ylidene)acetic acid]
Ki [1, 6]: 9690 nM

Cc1ccc2c(c1)CCC/C(=C\C(=O)O)C2O (stereo not shown) [Compound 7, (E)-2-(2-methyl-5-hydroxy-5,7,8,9-tetrahydro-6H-benzo[7]annulen-6-ylidene)acetic acid]
Ki [1]: 325 nM

O=C(O)/C=C1\CCCc2cc(Cl)ccc2C1O (stereo not shown) [Compound 4, (E)-2-(2-chloro-5-hydroxy-5,7,8,9-tetrahydro-6H-benzo[7]annulen-6-ylidene)acetic acid]
Ki [1, 6]: 52 nM

O=C(O)/C=C1\CCCc2c(-c3ccccc3)cccc2C1O (stereo not shown) [Compound 9, (E)-2-(1-phenyl-5-hydroxy-5,7,8,9-tetrahydro-6H-benzo[7]annulen-6-ylidene)acetic acid]
Ki [1, 6]: 382 nM

O=C(O)Cc1ccccc1Nc1c(Cl)cc(O)cc1Cl [4′-hydroxydiclofenac, reference compound]
Ki [2, 5]: 16000 nM

O=C(O)/C=C1\CCCc2cc(I)ccc2C1O (stereo not shown) [Compound 5, (E)-2-(2-iodo-5-hydroxy-5,7,8,9-tetrahydro-6H-benzo[7]annulen-6-ylidene)acetic acid]
Ki [1, 6]: 53 nM

O=C(O)/C=C1\CCCc2cc(-c3ccccc3)ccc2C1O (stereo not shown) [Compound 2, (E)-2-(5-hydroxy-2-phenyl-5,7,8,9-tetrahydro-6H-benzo[7]annulen-6-ylidene)acetic acid]
motor performance in both asymmetry tests ([3]; 50 mg/kg 3 hrs after injury): significantly improved
number of foot faults (grid-walking) ([3]; 175 mg/kg, 6 hr group): significantly reduced
time spent on affected paw (cylinder task) ([3]; 175 mg/kg, both 3 and 6 hrs): significantly reduced
decrease of infarct size vs saline [4, 7]: 39%
infarct size [4, 7]: 3.4 mm^3
decrease of infarct size vs saline ([4]; 175 mg/kg i.p. 3 or 6 hrs after injury): 38-46%
infarct size ([4]; 175 mg/kg i.p. 3 hrs after injury): 3.44 mm^3
infarct size ([4]; 175 mg/kg i.p. 6 hrs after injury): 2.98 mm^3

O=C(O)/C=C1\CCCc2c(Br)cccc2C1O (stereo not shown) [Compound 8, (E)-2-(1-bromo-5-hydroxy-5,7,8,9-tetrahydro-6H-benzo[7]annulen-6-ylidene)acetic acid]
Ki [1]: 225 nM

O=C(O)Cc1cc(O)ccc1Nc1c(Cl)cccc1Cl [C, 2-((2,6-dichlorophenyl)amino)-5-hydroxyphenylacetic acid]
inhibition of 3H-GABA binding to GABAB receptor (GABAB receptor; at a concentration of 1 mM): limited inhibition
